The structures appear in SMILES notation.

The target in one data set is JAK3 (Homo sapiens (Human), UniProt P52333). Description: Biochemical JAK kinase assay (LanthaScreen), JAK3. To be noted: read-out: JAK3 pKi (converted). The essentials:
(§1)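 LanthaScreen format: phospho-STAT1 (pTyr701) detected with 2 nM Tb antibody after 10 mM EDTA quench. Kinase step used Km-level ATP and 200 nM STAT1 peptide, 1 h at ambient after 1 h pre-incubation. Inhibition fitted to IC50, reported as pKi.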

Data set [1] has as its system IL-13 induced STAT6 phosphorylation in BEAS-2B human lung epithelial cells. Kind of data set: Cellular JAKI potency assay (BEAS-2B). Format: cell-based. To be noted: Homo sapiens, BEAS-2B, BEAS-2B cells, read-out: BEAS2B pIC50 (converted). The essentials: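 AlphaLISA SureFire detection of Tyr641 pSTAT6 in lysates gave IC50s (4-parameter fit, expressed as pIC50). Cells: human BEAS-2B, exposed 1 h at 37 °C to compound dose series at 0.1% DMSO, then 30 min to IL-13 added at 80 ng/mL in HEPES-buffered HBSS with BSA.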

In a further data set the target is TYK2 (Homo sapiens (Human), UniProt P29597). Kind of data set: Biochemical JAK kinase assay (LanthaScreen), Tyk2. Particulars: read-out: Tyk2 pKi (converted). Put shortly:
as §1

A further data set concerns the target JAK2 (Homo sapiens (Human), UniProt O60674). Description: Biochemical JAK kinase assay (LanthaScreen), JAK2. To be noted: for Ki: read-out: JAK2 pKi (converted). Put shortly:
as §1

Another data set concerns the target JAK1 (Homo sapiens (Human), UniProt P23458). Kind of data set: Biochemical JAK kinase assay (LanthaScreen), JAK1. Particulars: read-out: JAK1 pKi (converted). The essentials:
as §1

Data set [2] is described as follows: Pharmacokinetics in plasma and lung in mouse after oral aspiration administration. The format is in vivo. Particulars: male CD1 mice; for Lung Tissue AUC(0-24) / AUC(0-t): 0.2 mg/mL, two 25 μL increments; for Lung Tissue:Plasma AUC ratio: lung AUC to plasma AUC; for AUC(0-t): mouse, inhaled or intranasal, 0.01 mg/mouse, plasma, read-out: Plasma AUC(0-24). Put shortly: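 Male CD1 mice given 0.2 mg/mL compound in 20% propylene glycol/pH 4 citrate buffer, two 25 μL increments by oral aspiration into the trachea under isoflurane. Plasma and lung homogenate sampled 0.167–24 hr and measured by LC-MS/MS. Non-compartmental analysis gave AUC(0-inf); lung-to-plasma ratio from lung (μg*hr/g) over plasma (μg*hr/mL) AUC.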

JAK1, sequence (P23458 whole entry): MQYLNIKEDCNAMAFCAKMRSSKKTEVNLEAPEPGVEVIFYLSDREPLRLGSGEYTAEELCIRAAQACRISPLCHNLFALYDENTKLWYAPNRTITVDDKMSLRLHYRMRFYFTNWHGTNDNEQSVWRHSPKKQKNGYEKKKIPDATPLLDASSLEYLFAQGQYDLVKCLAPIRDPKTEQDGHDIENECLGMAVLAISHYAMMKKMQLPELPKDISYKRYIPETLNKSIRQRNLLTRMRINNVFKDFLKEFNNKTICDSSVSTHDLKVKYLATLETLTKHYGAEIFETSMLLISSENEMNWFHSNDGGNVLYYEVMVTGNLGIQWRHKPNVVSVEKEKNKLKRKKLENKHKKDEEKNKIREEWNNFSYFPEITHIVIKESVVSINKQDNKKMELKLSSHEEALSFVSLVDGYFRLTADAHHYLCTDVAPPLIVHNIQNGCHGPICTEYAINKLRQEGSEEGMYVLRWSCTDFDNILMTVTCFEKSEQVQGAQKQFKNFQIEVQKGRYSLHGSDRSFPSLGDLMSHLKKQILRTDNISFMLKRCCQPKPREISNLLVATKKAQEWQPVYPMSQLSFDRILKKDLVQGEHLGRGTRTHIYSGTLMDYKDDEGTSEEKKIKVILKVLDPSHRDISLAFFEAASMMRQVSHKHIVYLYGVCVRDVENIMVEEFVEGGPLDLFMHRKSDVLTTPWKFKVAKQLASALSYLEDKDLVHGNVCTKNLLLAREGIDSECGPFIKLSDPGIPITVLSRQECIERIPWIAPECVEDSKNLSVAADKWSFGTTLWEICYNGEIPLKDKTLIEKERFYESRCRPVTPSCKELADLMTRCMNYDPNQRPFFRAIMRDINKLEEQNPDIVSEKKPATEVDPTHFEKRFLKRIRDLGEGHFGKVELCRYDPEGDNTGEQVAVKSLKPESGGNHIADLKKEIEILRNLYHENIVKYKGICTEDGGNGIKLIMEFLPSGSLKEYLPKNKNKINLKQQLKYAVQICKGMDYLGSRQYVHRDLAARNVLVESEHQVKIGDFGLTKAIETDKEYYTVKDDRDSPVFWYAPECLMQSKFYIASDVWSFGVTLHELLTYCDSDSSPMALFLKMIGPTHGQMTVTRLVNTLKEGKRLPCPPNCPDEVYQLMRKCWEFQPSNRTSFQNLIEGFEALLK
TYK2, sequence (P29597 whole entry): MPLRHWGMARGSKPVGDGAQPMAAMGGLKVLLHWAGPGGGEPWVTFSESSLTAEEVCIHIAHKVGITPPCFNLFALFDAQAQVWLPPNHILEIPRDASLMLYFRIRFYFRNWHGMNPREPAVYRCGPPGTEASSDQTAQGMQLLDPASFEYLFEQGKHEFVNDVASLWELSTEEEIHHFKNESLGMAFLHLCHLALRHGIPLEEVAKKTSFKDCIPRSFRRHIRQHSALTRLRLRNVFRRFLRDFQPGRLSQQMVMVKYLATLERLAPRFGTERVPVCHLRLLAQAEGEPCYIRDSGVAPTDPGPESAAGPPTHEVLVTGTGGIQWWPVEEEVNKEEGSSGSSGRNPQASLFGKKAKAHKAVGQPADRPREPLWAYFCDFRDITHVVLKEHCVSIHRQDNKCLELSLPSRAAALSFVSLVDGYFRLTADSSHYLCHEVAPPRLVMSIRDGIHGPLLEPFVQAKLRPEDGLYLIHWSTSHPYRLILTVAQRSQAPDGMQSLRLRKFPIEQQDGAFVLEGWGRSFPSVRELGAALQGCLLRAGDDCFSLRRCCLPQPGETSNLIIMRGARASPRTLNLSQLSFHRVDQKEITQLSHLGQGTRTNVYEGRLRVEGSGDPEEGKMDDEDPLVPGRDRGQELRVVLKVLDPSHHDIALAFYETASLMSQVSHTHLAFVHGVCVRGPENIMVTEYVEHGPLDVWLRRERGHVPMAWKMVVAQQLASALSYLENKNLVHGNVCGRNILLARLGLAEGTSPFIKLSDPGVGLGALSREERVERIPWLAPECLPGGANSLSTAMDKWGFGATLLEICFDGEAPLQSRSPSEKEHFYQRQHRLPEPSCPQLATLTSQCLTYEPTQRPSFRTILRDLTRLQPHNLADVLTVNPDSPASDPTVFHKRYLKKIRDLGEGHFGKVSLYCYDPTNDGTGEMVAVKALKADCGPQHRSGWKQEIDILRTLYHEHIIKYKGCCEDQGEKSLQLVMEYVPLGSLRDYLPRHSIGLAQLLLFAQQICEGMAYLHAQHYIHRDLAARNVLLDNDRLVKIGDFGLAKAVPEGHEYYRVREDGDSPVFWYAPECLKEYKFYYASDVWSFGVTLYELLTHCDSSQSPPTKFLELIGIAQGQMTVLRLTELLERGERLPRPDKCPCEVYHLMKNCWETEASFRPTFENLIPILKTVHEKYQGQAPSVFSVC
JAK2, sequence (O60674 whole entry): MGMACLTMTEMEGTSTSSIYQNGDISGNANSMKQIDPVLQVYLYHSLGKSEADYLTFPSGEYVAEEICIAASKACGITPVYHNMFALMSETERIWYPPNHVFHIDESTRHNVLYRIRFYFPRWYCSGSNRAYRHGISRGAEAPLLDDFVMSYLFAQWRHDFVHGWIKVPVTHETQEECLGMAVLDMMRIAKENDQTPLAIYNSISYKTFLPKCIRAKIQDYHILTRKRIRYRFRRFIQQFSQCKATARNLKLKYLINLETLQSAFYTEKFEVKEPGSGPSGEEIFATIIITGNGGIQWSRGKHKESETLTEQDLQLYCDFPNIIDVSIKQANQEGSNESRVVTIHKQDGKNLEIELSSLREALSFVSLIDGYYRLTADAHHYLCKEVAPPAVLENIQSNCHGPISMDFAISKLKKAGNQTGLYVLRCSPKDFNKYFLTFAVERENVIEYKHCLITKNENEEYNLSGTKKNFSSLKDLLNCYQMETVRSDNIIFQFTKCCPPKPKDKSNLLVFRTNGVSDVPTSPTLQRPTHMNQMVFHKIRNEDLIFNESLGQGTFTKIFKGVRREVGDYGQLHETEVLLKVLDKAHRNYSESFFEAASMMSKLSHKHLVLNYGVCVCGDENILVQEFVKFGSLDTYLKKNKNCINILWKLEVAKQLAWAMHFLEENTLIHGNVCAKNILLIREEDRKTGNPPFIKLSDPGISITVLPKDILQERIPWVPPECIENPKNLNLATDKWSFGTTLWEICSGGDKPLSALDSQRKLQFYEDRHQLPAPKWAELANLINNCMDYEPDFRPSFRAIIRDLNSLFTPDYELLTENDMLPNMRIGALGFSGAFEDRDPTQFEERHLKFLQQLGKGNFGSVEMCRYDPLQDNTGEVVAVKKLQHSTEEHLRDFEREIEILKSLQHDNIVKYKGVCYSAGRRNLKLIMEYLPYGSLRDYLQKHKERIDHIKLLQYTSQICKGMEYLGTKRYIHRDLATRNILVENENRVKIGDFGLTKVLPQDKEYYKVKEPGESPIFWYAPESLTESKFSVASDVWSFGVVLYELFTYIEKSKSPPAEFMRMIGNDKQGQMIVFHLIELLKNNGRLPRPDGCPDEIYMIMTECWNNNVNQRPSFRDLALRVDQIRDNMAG
JAK3, sequence (P52333 whole entry): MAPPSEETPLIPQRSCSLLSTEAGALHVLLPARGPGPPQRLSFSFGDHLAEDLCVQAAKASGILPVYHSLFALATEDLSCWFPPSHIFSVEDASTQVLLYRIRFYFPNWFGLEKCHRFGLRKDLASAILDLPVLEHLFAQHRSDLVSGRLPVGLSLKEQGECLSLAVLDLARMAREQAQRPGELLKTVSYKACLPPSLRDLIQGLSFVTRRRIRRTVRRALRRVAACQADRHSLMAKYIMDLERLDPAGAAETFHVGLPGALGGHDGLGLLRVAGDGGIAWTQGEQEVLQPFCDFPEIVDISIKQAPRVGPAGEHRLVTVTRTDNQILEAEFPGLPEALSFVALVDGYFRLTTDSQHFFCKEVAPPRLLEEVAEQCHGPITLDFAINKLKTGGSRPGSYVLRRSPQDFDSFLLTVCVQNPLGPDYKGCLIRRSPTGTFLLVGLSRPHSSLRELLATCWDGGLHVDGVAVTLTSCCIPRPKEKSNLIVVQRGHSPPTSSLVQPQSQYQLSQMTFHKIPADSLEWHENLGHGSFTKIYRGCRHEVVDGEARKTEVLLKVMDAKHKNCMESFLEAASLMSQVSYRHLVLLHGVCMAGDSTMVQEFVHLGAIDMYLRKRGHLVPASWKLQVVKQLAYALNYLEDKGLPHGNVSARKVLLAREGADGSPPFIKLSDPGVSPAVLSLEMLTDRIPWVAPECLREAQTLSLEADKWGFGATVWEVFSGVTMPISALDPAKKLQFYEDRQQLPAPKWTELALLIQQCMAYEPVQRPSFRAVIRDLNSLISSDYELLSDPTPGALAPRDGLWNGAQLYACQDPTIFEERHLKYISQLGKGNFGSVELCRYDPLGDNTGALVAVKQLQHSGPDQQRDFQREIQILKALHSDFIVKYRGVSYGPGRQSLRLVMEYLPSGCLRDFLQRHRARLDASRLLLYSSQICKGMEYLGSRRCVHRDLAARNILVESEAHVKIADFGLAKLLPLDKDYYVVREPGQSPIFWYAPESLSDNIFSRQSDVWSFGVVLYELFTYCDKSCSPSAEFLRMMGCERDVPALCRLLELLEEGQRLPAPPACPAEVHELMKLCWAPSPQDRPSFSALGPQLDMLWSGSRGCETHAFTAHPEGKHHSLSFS

On to `CCc1cc(O)ccc1-c1ccc2c(-c3nc(C4=CCCN(C5CCN(C)CC5)C4)c[nH]3)n[nH]c2c1` [Example 192], for which the Ki on JAK3 is 0.1 to 1 nM. Moreover, the IC50 in data set [1] is 10 to 31.6 nM. Besides, the Ki at TYK2 was 1 to 10 nM. At JAK2, the “JAK2 pKi” value is on record as “A (A represents a pKi value ≥10 (Ki≤0.1 nM))”. In addition, the Ki at JAK1 is 0.1 to 1 nM. In data set [2], the “Lung Tissue AUC(0-24)” value was “A (For the Lung Tissue AUC(0-24), A denotes a value between 100 and 200)”; the “Lung Tissue:Plasma AUC ratio” value is recorded as “A (For the ratio of lung exposure to plasma exposure, A denotes a ratio 300-410)”; the AUC(0-t) is below 500 ng·h/mL.
As to `CCc1cc(O)ccc1-c1ccc2c(-c3nc(C4=CCN(C5CCN(C)CC5)CC4)c[nH]3)n[nH]c2c1F` [Example 185], the Ki is 0.1 to 1 nM at JAK3, 1 to 10 nM on TYK2, 0.1 to 1 nM at JAK2 and 0.1 to 1 nM at JAK1. Further, the IC50 in data set [1] is 10 to 31.6 nM. Besides, the “Lung Tissue AUC(0-24)” value in data set [2] was “A (For the Lung Tissue AUC(0-24), A denotes a value between 100 and 200)”. In addition, the “Lung Tissue:Plasma AUC ratio” value in data set [2] was “B (B denotes a ratio between 200 and 300)”. Also, in data set [2], the AUC(0-t) was 500 to 1000 ng·h/mL.
Consider `CCc1cc(O)ccc1-c1ccc2c(-c3nc(C4=CCN(C(C)C)C4)c[nH]3)n[nH]c2c1F` [Example 32], for which the Ki is 0.1 to 1 nM at JAK3, 1 to 10 nM on TYK2, 0.1 to 1 nM at JAK2 and 0.1 to 1 nM on JAK1. For the same molecule, in data set [1], the IC50 was 3.16 to 10 nM. Also, the “Lung Tissue AUC(0-24)” value in data set [2] is “C (C denotes a value between 9 and 50)”. In addition, the “Lung Tissue:Plasma AUC ratio” value in data set [2] was “D (D denotes a ratio between 50 and 100)”. Also, in data set [2], the AUC(0-t) is below 500 ng·h/mL.
`CCc1cc(O)ccc1-c1ccc2c(-c3nc(C4=CCN(C5CN(C)C5)CC4)c[nH]3)n[nH]c2c1` [Compound 15, 3-ethyl-4-(3-(4-(1-(1-methylazetidin-3-yl)-1,2,3,6-tetrahydropyridin-4-yl)-1H-imidazol-2-yl)-1H-indazol-6-yl)phenol]: the Ki at JAK3 is 0.1 to 1 nM. For the same molecule, in data set [1], the IC50 was 10 to 31.6 nM. For the same molecule, the Ki at TYK2 was 1 to 10 nM. Further, the “JAK2 pKi” value at JAK2 is reported as “A (A represents a pKi value ≥10 (Ki≤0.1 nM))”. Also, the Ki on JAK1 was 0.1 to 1 nM. Also, in data set [2], the “Lung Tissue AUC(0-24)” value is “B (B denotes a value between 50 and 100)”; the “Lung Tissue:Plasma AUC ratio” value is “C (C denotes a ratio between 100 and 200)”; the AUC(0-t) is below 500 ng·h/mL.
On to `CCc1cc(O)ccc1-c1ccc2c(-c3nc(C4=CC[C@@H](C)NC4)c[nH]3)n[nH]c2c1F` [Example 235], for which the Ki at JAK3 was 0.1 to 1 nM. The IC50 in data set [1] is 10 to 31.6 nM. In addition, the Ki on TYK2 was 1 to 10 nM. For the same molecule, the “JAK2 pKi” value on JAK2 is given as “A (A represents a pKi value ≥10 (Ki≤0.1 nM))”. Besides, at JAK1, the Ki was 0.1 to 1 nM. In addition, in data set [2], the “Lung Tissue AUC(0-24)” value was “C (C denotes a value between 9 and 50)”; the “Lung Tissue:Plasma AUC ratio” value is “C (C denotes a ratio between 100 and 200)”; the AUC(0-t) was below 500 ng·h/mL.
Regarding `CCc1cc(O)ccc1-c1ccc2c(-c3nc(C4=CCN(C5CCN(C)CC5)C4)c[nH]3)n[nH]c2c1F` [Example 201], the Ki at JAK3 was 0.1 to 1 nM. Besides, the IC50 in data set [1] was 3.16 to 10 nM. Besides, at TYK2, the Ki is 1 to 10 nM. Moreover, the “JAK2 pKi” value at JAK2 is given as “A (A represents a pKi value ≥10 (Ki≤0.1 nM))”. On JAK1, the Ki is 0.1 to 1 nM. For the same molecule, in data set [2], the “Lung Tissue AUC(0-24)” value is “A (For the Lung Tissue AUC(0-24), A denotes a value between 100 and 200)”; the “Lung Tissue:Plasma AUC ratio” value was “B (B denotes a ratio between 200 and 300)”; the AUC(0-t) was 500 to 1000 ng·h/mL.
With `CCc1cc(O)ccc1-c1ccc2c(-c3nc(C4=CCN(C(=O)[C@@H](N)C(C)(C)O)C4)c[nH]3)n[nH]c2c1` [Example 170], at JAK3, the Ki was 0.1 to 1 nM. Moreover, the IC50 in data set [1] is 10 to 31.6 nM. Further, the Ki at TYK2 is 0.1 to 1 nM. The “JAK2 pKi” value on JAK2 is on record as “A (A represents a pKi value ≥10 (Ki≤0.1 nM))”. Further, the Ki at JAK1 is 0.1 to 1 nM. Moreover, in data set [2], the “Lung Tissue AUC(0-24)” value is “B (B denotes a value between 50 and 100)”; the “Lung Tissue:Plasma AUC ratio” value was “C (C denotes a ratio between 100 and 200)”; the AUC(0-t) was below 500 ng·h/mL.

Source of the values: patent US20240092758A1, “IMIDAZOLO INDAZOLE COMPOUNDS AS JAK INHIBITORS” (Theravance Biopharma R&D IP, LLC, priority 2021, published 2024).
